Laboratory results as given in publication PMC5328627 (Journal of natural products, 2009).

Columns and labels:
Assay type in all cases: cell-based, human
IGROV1 = settings: ovarian cancer cell line; single high dose 10^−5 M
UO-31 = settings: renal cancer cell line; single high dose 10^−5 M
NCI-H522 = settings: non-small cell lung cancer cell line; single high dose 10^−5 M

Substance | Percent growth of IGROV1 (IGROV1) | Percent growth of UO-31 (UO-31) | Percent growth of NCI-H522 (NCI-H522)
cyclo(FSPIFPI) (SMILES CC[C@H](C)[C@@H]1NC(=O)[C@@H]2CCCN2C(=O)[C@H](CO)NC(=O)[C@H](Cc2ccccc2)NC(=O)[C@H]([C@@H](C)CC)NC(=O)[C@@H]2CCCN2C(=O)[C@H](Cc2ccccc2)NC1=O) [compound 4, euryjanicin D] | 100% | 82.7% | 94.6%
cyclo(SIPLFPI) (SMILES CC[C@H](C)[C@@H]1NC(=O)[C@@H]2CCCN2C(=O)[C@H](Cc2ccccc2)NC(=O)[C@H](CC(C)C)NC(=O)[C@@H]2CCCN2C(=O)[C@H]([C@@H](C)CC)NC(=O)[C@H](CO)NC1=O) [compound 3, euryjanicin C] | 100% | 83.4% | 95.1%
euryjanicin A [compound 1] | 82.6% | 73.6% | 72.2%
cyclo(ATPFVPP) (SMILES CC(C)[C@@H]1NC(=O)[C@H](Cc2ccccc2)NC(=O)[C@@H]2CCCN2C(=O)[C@H]([C@@H](C)O)NC(=O)[C@H](C)NC(=O)[C@@H]2CCCN2C(=O)[C@@H]2CCCN2C1=O) [compound 2, euryjanicin B] | 91.3% | 76.3% | 83.9%
dominicin [compound 5] | 100% | 32.8% | 100%
